Results on 52 compounds are retold here after ChEMBL document CHEMBL1201862, “PubChem BioAssay data set” (2004).

For assay [1], the target named is Cytochrome P450 3A4 (Homo sapiens, UniProt P08684).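 Note: CYP3A4 tested as one member of a cytochrome P450 panel screen.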
The target of assay [2] is T1, Streptokinase A (Streptococcus pyogenes serotype M1, UniProt P10520).
T1 sequence (P10520 whole entry): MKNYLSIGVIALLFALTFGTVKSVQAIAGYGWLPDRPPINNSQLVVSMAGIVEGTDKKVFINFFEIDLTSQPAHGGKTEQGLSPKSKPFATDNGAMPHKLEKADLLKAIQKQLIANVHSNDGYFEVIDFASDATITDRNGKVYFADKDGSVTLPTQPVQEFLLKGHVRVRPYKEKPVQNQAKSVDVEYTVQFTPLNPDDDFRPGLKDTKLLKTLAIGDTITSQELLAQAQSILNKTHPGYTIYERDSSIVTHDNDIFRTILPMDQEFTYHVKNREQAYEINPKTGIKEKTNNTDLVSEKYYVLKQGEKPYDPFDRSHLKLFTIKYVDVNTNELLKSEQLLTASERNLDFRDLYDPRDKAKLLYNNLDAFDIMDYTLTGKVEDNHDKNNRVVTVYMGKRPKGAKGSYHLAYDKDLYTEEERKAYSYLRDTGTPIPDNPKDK
Description: S. pyogenes streptokinase expression inhibitors, potency, dose response, plasminogen activation absorbance, OD405 (AID 1914).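 Note: secreted streptokinase activity via plasminogen activation per viability signal from cell pellet.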 The assay is classed as functional, Streptococcus pyogenes M1 GAS.

Assay [3] has as its system Streptococcus. Description: Group A Streptococcus viability loss, dose response, counter-screen for streptokinase expression inhibitor project, luminescence, BacTiterGlo (AID 1915).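 Note: potency for reduction of bacterial viability or growth.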 The assay is classed as functional, organism-based.
In assay [4] the test system is Streptococcus sp. 'group A'. Description: growth inhibition of control SK(-) GAS strain, dose response, counter-screen for streptokinase expression inhibitor project, luminescence, kanamycin, BacTiterGlo, confirmation (AID 1900). The assay is classed as functional, organism-based. For orientation: A counterscreen serves to expose hits that act by an unwanted route or on another target.

Assay [5] addresses Cytochrome P450 2C9 (Homo sapiens, UniProt P11712).
The nature of assay [6]: Luminescence Cell-Based Dose Response HTS to Identify Activators of Luciferase Translation or Activity in H4 […] Cells. [Related pubchem assays: 1829 (Project Summary), 1814 (Primary HTS)]. It counts as functional.
The subject of assay [7] is H4. Description: Luminescence Cell-Based Dose Response HTS to Identify Activators of 5'UTR Stem-Loop Driven Prion Protein mRNA Translation in H4 Neuroglioblastoma Cells. [Related pubchem assays: 1829 (Project Summary), 1814 (Primary HTS)]. It counts as functional. The conditions noted are these: Homo sapiens.
Assay [8] in a line: cytotoxicity toward NIH3T3 fibroblasts, dose response, counter-screen, cell-based, ATP luminescence, mouse fibroblasts (AID 2010).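 Note: cells exposed to compound for about 90 hours before reading.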 It counts as functional.
Assay [9] in a line: inhibitors of intracellular T. cruzi replication, confirmation, NIH3T3 host cells, beta-gal luminescence (AID 2044).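 Note: intracellular parasites grown in NIH/3T3 mouse fibroblasts as host cells; luminescent beta-galactosidase reporter signal from transgenic T. cruzi replicating inside host cells; inhibitors lower the luminescence signal.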 The assay is classed as functional, cell-based.

Calls of active or inactive are those of the source. Cut-off read from the data, not from the text of the source, for most assays here: actives have a measured EC50 and inactives only a lower limit.

Cytochrome P450 2C9, sequence (P11712 whole entry): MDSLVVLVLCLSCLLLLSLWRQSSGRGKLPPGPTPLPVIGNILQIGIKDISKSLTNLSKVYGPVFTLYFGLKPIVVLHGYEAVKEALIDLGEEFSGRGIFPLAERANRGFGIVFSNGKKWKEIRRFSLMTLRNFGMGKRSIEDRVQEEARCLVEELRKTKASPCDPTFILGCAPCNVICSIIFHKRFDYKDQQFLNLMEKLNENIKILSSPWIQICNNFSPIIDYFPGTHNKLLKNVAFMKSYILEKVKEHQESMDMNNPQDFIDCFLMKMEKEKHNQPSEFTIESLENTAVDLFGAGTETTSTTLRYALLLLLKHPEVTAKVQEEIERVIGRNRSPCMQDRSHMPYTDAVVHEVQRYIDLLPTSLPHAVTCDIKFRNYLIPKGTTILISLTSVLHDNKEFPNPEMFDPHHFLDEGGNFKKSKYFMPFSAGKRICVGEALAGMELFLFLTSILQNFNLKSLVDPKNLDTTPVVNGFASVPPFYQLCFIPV
Cytochrome P450 3A4, sequence (P08684 whole entry): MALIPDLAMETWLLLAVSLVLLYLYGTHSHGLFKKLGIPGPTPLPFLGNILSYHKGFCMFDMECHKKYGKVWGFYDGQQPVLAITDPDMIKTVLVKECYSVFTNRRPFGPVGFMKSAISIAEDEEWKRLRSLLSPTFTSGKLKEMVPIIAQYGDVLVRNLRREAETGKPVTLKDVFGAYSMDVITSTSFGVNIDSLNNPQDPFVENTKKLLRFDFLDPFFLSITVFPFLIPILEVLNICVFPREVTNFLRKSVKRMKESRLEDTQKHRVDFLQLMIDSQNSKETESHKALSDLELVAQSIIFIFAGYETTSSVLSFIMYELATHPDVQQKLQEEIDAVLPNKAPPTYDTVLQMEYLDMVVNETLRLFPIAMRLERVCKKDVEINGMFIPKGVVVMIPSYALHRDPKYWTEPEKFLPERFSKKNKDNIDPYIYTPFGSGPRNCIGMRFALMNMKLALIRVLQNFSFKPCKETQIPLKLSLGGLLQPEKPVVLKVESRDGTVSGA

Turning to `CCCCOc1cc(C[C@@H]2CNC(=O)N2)ccc1OC`, in [1], the AC50 – broadly, the concentration at which the activity in the assay is half-maximal – was 15.8 µM (inconclusive). As to `O=C(Nc1ccccc1Sc1ccccc1)c1ccccc1F`, the EC50 – broadly, the midpoint of the concentration-response curve – in assay [2] was > 50 µM (not active); in assay [3] it was > 150 µM (not active). In the case of `O=C(O)CSc1nnc(Cn2c(=O)sc3ccccc32)n1-c1cccc(Cl)c1`, the EC50 in assay [4], in [2] and in [3] was > 150 µM (not active) throughout. `Clc1ccccc1-c1cncnc1NCCc1cnc[nH]1`: the AC50 in [5] was 1 µM (inconclusive). `Cc1ccc(NC(=O)OCc2cn(-c3ccc(Cl)cc3)nn2)cc1`: the AC50 in [1] was 7.94 µM (inconclusive). For `O=C(CSc1nnc(-c2cccnc2)o1)Nc1ccccn1`, the half-maximal effective concentration (EC50) in assay [6] was 14.5 µM (active); in [7] it was > 120 µM (not active). With `COc1ccccc1C(=O)Nc1nnc(S(=O)(=O)N2CCN(c3ccc(F)cc3)CC2)s1`, the 50% effective concentration (EC50) in assay [4] is 20.1 µM (active); in assay [2], > 50 µM (not active); in assay [3], 119 µM (inconclusive). As to `COc1ccc(CNC(=O)CN(Cc2ccccc2)S(=O)(=O)c2ccc(Cl)cc2)cc1`, the EC50 in assay [8] is > 60 µM (not active); in assay [9], 3150 nM (active).

Turning to `O=C(C1CCCCC1)N(CCN1CCCC1)c1nc2ccccc2s1`, the EC50 is > 60 µM (not active) in [8] and 780 nM (active) in assay [9]. As to `Fc1ccc(/C=C\c2[nH]ccc3c4ccccc4nc2-3)cc1`, the values for the EC50 in [6] and in [7] were 17.7 µM (active) and > 120 µM (not active), respectively.

For the compound `CC(C)CN1CCC2(CC1)CCN(C(=O)c1ccncc1)CC2`, the AC50 in assay [1] is 15.8 µM (inconclusive). Still for that read-out and setting: in the case of `C[C@@]12CC[C@H]3[C@@H](CC[C@@H]4C[C@H]5S[C@H]5C[C@]43C)[C@H]1CC[C@H]2O` it was 6.31 µM (inconclusive). Turning to `Cc1noc(C)c1CSCC(=O)Nc1nc2ccc(Oc3ccccc3)cc2s1`, the EC50 in [4] is 4.32 µM (active); in assay [2], 16.9 µM (active); in assay [3] it was > 150 µM (not active). As to `O=C(Nc1cc(C(F)(F)F)ccc1-n1cncn1)c1ccc(Br)cc1`, the AC50 in assay [5] is 3.16 µM (inconclusive). Regarding `CN(C)c1cc(-c2cccc(NS(C)(=O)=O)c2)ncn1`, the AC50 in [1] was 25.1 µM (inconclusive).

In the case of `COc1ccc2c3c1O[C@@H]1C(=O)CC[C@@]4(O)[C@@H](C2)N(CC2CC2)CC[C@]314`, in assay [1], the AC50 was 25.1 µM (inconclusive). With `O=c1c(-c2cccs2)nc2cnc(Oc3ccccc3)nc2n1Cc1cccs1`, the AC50 in assay [5] was 1.58 µM (inconclusive); in [1], 15.8 µM (inconclusive). As for `O=C(CC(=O)c1ccccc1)Nc1cccnc1Cl`, the EC50 in assay [6] was 61.9 µM (active); in assay [7], 8.38 µM (active). As for `O=C(CSc1nc2ccc([N+](=O)[O-])cc2s1)c1ccc2ccccc2c1`, in assay [1], the AC50 was 3.98 µM (inconclusive). On the same count and under the same terms, with `CC(C)CN1CCCC2(CCN(C(=O)c3cccn3C)CC2)C1` the figure was 12.6 µM (inconclusive). As for `CN1CCC(N(C)C(=O)c2sc3cc(F)ccc3c2Cl)CC1`, the values for the half-maximal effective concentration (EC50) in assay [8] and in [9] were > 60 µM (not active) and 197 nM (active), respectively. For the compound `COc1cccc(CNC(=O)CCC2CCCN(Cc3cc4ccccc4o3)C2)c1` (stereo unspecified), the results for the EC50 in assay [8] and in assay [9] were > 60 µM (not active) and 103 nM (active), respectively. As to `Clc1ccc(-c2cc3ccccc3nc2N2CCCC2)cc1`, the EC50 in assay [4] is 8.89 µM (active); in [2] it was 17.6 µM (active); in assay [3], > 150 µM (not active). `Cc1nc2ccccc2c(=O)n1NC(=O)/C=C/c1ccccc1Cl`: the EC50 in [6] is 12.2 µM (active); in assay [7], 84.4 µM (active). For the compound `Cc1ccc(N2C(=O)C3N=NN(CC(=O)N4N=C(c5cccc6ccccc56)CC4c4ccccc4)C3C2=O)cc1` (stereo unspecified), the results for the concentration for a half-maximal effect (EC50) in assay [4], in assay [2] and in assay [3] were 31.4 µM (active), 35.7 µM (active) and > 150 µM (not active), respectively. `COc1ccc(C2CC(c3cccs3)=NN2C(=O)CSc2nc(O)c3cnn(-c4ccccc4)c3n2)cc1` (stereo unspecified): the half-maximal effective concentration (EC50) in assay [4] was 3 µM (active); in [3], 5.77 µM (active). On to `Cc1nc2cnc(N3CCN(C)CC3)nc2n(Cc2ccc(F)cc2)c1=O`, for which the AC50 in assay [1] was 20 µM (inconclusive).

Consider `Cc1nn(C)c(Cl)c1CN1CCCC(C(=O)Nc2ccc(-c3cscn3)cc2)C1` (stereo unspecified), for which the EC50 in assay [4], in assay [2] and in assay [3] was > 150 µM (not active) throughout. For the compound `CCCn1c(=O)c(C(=O)Nc2ncccc2C)c(O)c2ccccc21`, the concentration for a half-maximal effect (EC50) was 9.49 µM (active) in [4], > 150 µM (not active) in assay [2] and 16.8 µM (active) in [3].

Take `C[C@H]1CC[C@H]2C(=O)N3[C@H](c4ccc(Br)cc4)[C@@H](C)CC[C@H]3C(=O)N2[C@@H]1c1ccc(Br)cc1`: the AC50 in assay [1] is 3.98 µM (inconclusive). Same read-out and setting: in the case of `CC(NC(=O)CN1CCCC1)C12CC3CC(CC(C3)C1)C2` (stereo unspecified) it was 14.1 µM (inconclusive). `COc1ccc(C(=O)Nc2sc(C)c(-c3ccccc3)c2C#N)cc1OC`: the figures for the half-maximal effective concentration (EC50) in [4], in assay [2] and in [3] were 9.09 µM (active), > 150 µM (not active) and 45.5 µM (active), respectively. On to `CCNC(C)(C)[C@@H](SS)c1ccc(Br)cc1`, for which the AC50 in [5] was 6.31 µM (inconclusive); in assay [1], 5.01 µM (inconclusive). On to `CC(Oc1ccc(Cl)cc1Cl)C(=O)Nc1ccc(S(=O)(=O)Nc2cnc3ccccc3n2)cc1` (stereo unspecified), for which the EC50 in assay [4] is 2.45 µM (active); in assay [2], 3.69 µM (active); in [3], 7.38 µM (active).

As for `COc1ccccc1CNc1ncncc1-c1ccoc1`, the AC50 is 1.58 µM (inconclusive) in assay [5] and 0.794 µM (inconclusive) in [1]. Take `COCCOC(=O)C1=C(C)NC(=O)N(C(C)=O)C1c1ccc(Cl)cc1` (stereo unspecified): the AC50 in assay [1] was 17.8 µM (inconclusive). Take `COc1ccccc1CNc1ncncc1-c1ccccc1OC`: in assay [5], the AC50 is 1.58 µM (inconclusive). Regarding `O=C(COC(=O)c1ccccc1)Nc1ccccc1Sc1ccccc1`, the values for the EC50 in assay [4], in [2] and in [3] were > 150 µM (not active), 28.8 µM (active) and > 150 µM (not active), respectively. On to `O=C(Cn1cnc2cc([N+](=O)[O-])ccc2c1=O)Nc1ccc(Br)cc1`, for which the 50% effective concentration (EC50) in assay [8] is > 30 µM (not active); in assay [9] it was 850 nM (active). `COc1cccc(NCc2cc(=O)oc3cc(C)c(O)cc23)c1`: the EC50 in assay [4] was 1.83 µM (active); in assay [3], 2.79 µM (active).

As for `COc1ccccc1CNC(=O)c1ccc(-c2ccccc2Cl)o1`, the EC50 is 15.3 µM (active) in assay [4], > 150 µM (not active) in assay [2] and 17.5 µM (active) in assay [3]. For `O=C(c1ccco1)N(CCC(c1ccccc1)c1ccco1)Cc1ccco1` (stereo unspecified), the concentration at half-maximal activity (AC50) in assay [1] was 11.2 µM (inconclusive). Regarding `CCCC(N=C(S)NCC1CCCO1)C12CC3CC(CC(C3)C1)C2` (stereo unspecified), the figures for the EC50 in assay [4] and in [3] were 12.3 µM (active) and > 150 µM (not active), respectively. `CCCC(NC(=S)NCC1CCCO1)C12CC3CC(CC(C3)C1)C2` (stereo unspecified): in assay [2], the EC50 is 18 µM (active). For the compound `CC(C)c1c(C(=O)N/N=C/c2cccc(OCc3ccccc3)c2)nnn1-c1nonc1N`, the EC50 in assay [4] is 8.03 µM (active); in assay [2], 9.73 µM (active); in assay [3] it was 26.4 µM (active). Take `Cc1cc2c(cc1C)-c1c(ss/c1=N\c1ccc(S(N)(=O)=O)cc1)C(C)(C)N2`: the concentration giving a half-maximal response (EC50) in assay [4] is 4.16 µM (active); in assay [2] it was 26.1 µM (active); in assay [3], > 150 µM (not active). With `C/C(=N\NC(=O)c1[nH]c2c([N+](=O)[O-])cc(C)cc2c1-c1ccccc1)c1cccnc1`, the AC50 in [5] was 8.91 µM (inconclusive). In the case of `C=C(C)CSc1nncn1/N=C/c1ccc(OC)cc1`, the EC50 is > 120 µM (not active) in [6] and 11.9 µM (active) in assay [7]. For `CN(C)c1ccc(-c2noc(C3CCN(S(=O)(=O)c4cccc(C(=O)O)c4)CC3)n2)cc1`, the AC50 in assay [5] was 15.8 µM (inconclusive). Turning to `COc1cccc(-c2cncnc2NCc2ccc(OC)cc2OC)c1`, the AC50 in assay [5] is 1 µM (inconclusive). As to `C1=C(CN2CCOCC2)COc2c1cccc2OC[C@@H]1CNCCO1`, the AC50 in assay [1] was 39.8 µM (inconclusive).

As to `C/C(Cn1cnc([N+](=O)[O-])n1)=N\NC(=O)c1ccc(O)cc1O`, the EC50 was > 60 µM (not active) in assay [8] and 1520 nM (active) in assay [9].
